According to patent US20130303509A1, “NAMPT INHIBITORS” (AbbVie Inc., priority 2012, published 2013):
pIC50: −log10 of the molar value.

What follows are compounds tested on PC3 cells (assay: NAMPT Cell Proliferation Assay). Conditions: Homo sapiens, PC-3, 120 h, 5 days incubation, cell viability by Cell Titer Glo.
Format: cell-based
Procedure, shortened: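 Five-day CellTiter-Glo viability readout in PC3 cells grown in RPMI/10% heat-inactivated FBS. Compounds added after overnight attachment as a 10-fold dilution series, […]. Percent inhibition fitted to sigmoidal dose-response to derive IC50.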

Structure (SMILES) | pIC50
O=C(Nc1ccc(C2CCN(C(=O)c3ccc(Cl)cc3)CC2)cc1)C1CN(c2cccnn2)C1 [Example 401, N-{4-[1-(4-chlorobenzoyl)piperidin-4-yl]phenyl}-1-(pyridazin-3-yl)azetidine-3-carboxamide] | 8.07
CC(C)(C)C(=O)N1CCC(c2ccc(NC(=O)C3CN(c4cccnn4)C3)cc2)CC1 [Example 402, N-{4-[1-(2,2-dimethylpropanoyl)piperidin-4-yl]phenyl}-1-(pyridazin-3-yl)azetidine-3-carboxamide] | 8.77
O=C(Nc1ccc(C2CCN(C(=O)Cc3cccc(C(F)(F)F)c3)CC2)cc1)C1CN(c2cccnn2)C1 [Example 403, 1-(pyridazin-3-yl)-N-[4-(1-{[3-(trifluoromethyl)phenyl]acetyl}piperidin-4-yl)phenyl]azetidine-3-carboxamide] | 8.39
O=C(Nc1ccc(C2CCN(C(=O)Cc3cccc(Cl)c3)CC2)cc1)C1CN(c2cccnn2)C1 [Example 404, N-(4-{1-[(3-chlorophenyl)acetyl]piperidin-4-yl}phenyl)-1-(pyridazin-3-yl)azetidine-3-carboxamide] | 8.57
O=C(Nc1ccc(C2CCN(C(=O)Cc3ccc(Cl)cc3Cl)CC2)cc1)C1CN(c2cccnn2)C1 [Example 405, N-(4-{1-[(2,4-dichlorophenyl)acetyl]piperidin-4-yl}phenyl)-1-(pyridazin-3-yl)azetidine-3-carboxamide] | 8.17
O=C(Nc1ccc(C2CCN(C(=O)c3cccc4ccccc34)CC2)cc1)C1CN(c2cccnn2)C1 [Example 406, N-{4-[1-(naphthalen-1-ylcarbonyl)piperidin-4-yl]phenyl}-1-(pyridazin-3-yl)azetidine-3-carboxamide] | 8.13
CO[C@@H](C(=O)N1CCC(c2ccc(NC(=O)C3CN(c4cccnn4)C3)cc2)CC1)c1ccccc1 [Example 407, N-(4-{1-[(2R)-2-methoxy-2-phenylacetyl]piperidin-4-yl}phenyl)-1-(pyridazin-3-yl)azetidine-3-carboxamide] | 9.00
O=C(NCC(=O)N1CCC(c2ccc(NC(=O)C3CN(c4cccnn4)C3)cc2)CC1)c1ccco1 [Example 408, N-(4-{1-[N-(furan-2-ylcarbonyl)glycyl]piperidin-4-yl}phenyl)-1-(pyridazin-3-yl)azetidine-3-carboxamide] | 7.52
O=C(Nc1ccc(C2CCN(C(=O)COCc3ccccc3)CC2)cc1)C1CN(c2cccnn2)C1 [Example 409, N-(4-{1-[(benzyloxy)acetyl]piperidin-4-yl}phenyl)-1-(pyridazin-3-yl)azetidine-3-carboxamide] | 8.17
O=C(Nc1ccc(C2CCN(C(=O)Cc3cccc4ccccc34)CC2)cc1)C1CN(c2cccnn2)C1 [Example 410, N-{4-[1-(naphthalen-1-ylacetyl)piperidin-4-yl]phenyl}-1-(pyridazin-3-yl)azetidine-3-carboxamide] | 8.06
O=C(Nc1ccc(C2CCN(C(=O)C3CC3)CC2)cc1)C1CN(c2cccnn2)C1 [Example 411, N-{4-[1-(cyclopropylcarbonyl)piperidin-4-yl]phenyl}-1-(pyridazin-3-yl)azetidine-3-carboxamide] | 8.15
O=C(Nc1ccc(C2CCN(C(=O)C3CCCO3)CC2)cc1)C1CN(c2cccnn2)C1 (centres unmarked) [Example 412, 1-(pyridazin-3-yl)-N-{4-[1-(tetrahydrofuran-2-ylcarbonyl)piperidin-4-yl]phenyl}azetidine-3-carboxamide] | 8.86
O=C(NCC(=O)N1CCC(c2ccc(NC(=O)C3CN(c4cccnn4)C3)cc2)CC1)c1ccccc1 [Example 413, N-{4-[1-(N-benzoylglycyl)piperidin-4-yl]phenyl}-1-(pyridazin-3-yl)azetidine-3-carboxamide] | 8.00
O=C(Nc1ccc(C2CCN(C(=O)C3CCOC3)CC2)cc1)C1CN(c2cccnn2)C1 (centres unmarked) [Example 414, 1-(pyridazin-3-yl)-N-{4-[1-(tetrahydrofuran-3-ylcarbonyl)piperidin-4-yl]phenyl}azetidine-3-carboxamide] | 8.13
O=C(Nc1ccc(C2CCN(C(=O)CCCc3cccs3)CC2)cc1)C1CN(c2cccnn2)C1 [Example 415, 1-(pyridazin-3-yl)-N-(4-{1-[4-(thiophen-2-yl)butanoyl]piperidin-4-yl}phenyl)azetidine-3-carboxamide] | 8.64
O=C(Nc1ccc(C2CCN(C(=O)c3cc(F)ccc3F)CC2)cc1)C1CN(c2cccnn2)C1 [Example 416, N-{4-[1-(2,5-difluorobenzoyl)piperidin-4-yl]phenyl}-1-(pyridazin-3-yl)azetidine-3-carboxamide] | 8.95
O=C(Nc1ccc(C2CCN(C(=O)C3CCC3)CC2)cc1)C1CN(c2cccnn2)C1 [Example 417, N-{4-[1-(cyclobutylcarbonyl)piperidin-4-yl]phenyl}-1-(pyridazin-3-yl)azetidine-3-carboxamide] | 8.19
Cc1ccc(S(=O)(=O)NCC(=O)N2CCC(c3ccc(NC(=O)C4CN(c5cccnn5)C4)cc3)CC2)cc1 [Example 418, N-[4-(1-{N-[(4-methylphenyl)sulfonyl]glycyl}piperidin-4-yl)phenyl]-1-(pyridazin-3-yl)azetidine-3-carboxamide] | 8.08

Structure (SMILES) | pIC50
O=C(Nc1ccc(C2CCN(C(=O)Cc3cccc(F)c3F)CC2)cc1)C1CN(c2cccnn2)C1 [Example 419, N-(4-{1-[(2,3-difluorophenyl)acetyl]piperidin-4-yl}phenyl)-1-(pyridazin-3-yl)azetidine-3-carboxamide] | 8.66
CO[C@H](C(=O)N1CCC(c2ccc(NC(=O)C3CN(c4cccnn4)C3)cc2)CC1)c1ccccc1 [Example 420, N-(4-{1-[(2S)-2-methoxy-2-phenylacetyl]piperidin-4-yl}phenyl)-1-(pyridazin-3-yl)azetidine-3-carboxamide] | 8.63
O=C(Nc1ccc(C2CCN(C(=O)Cc3ccc4ccccc4c3)CC2)cc1)C1CN(c2cccnn2)C1 [Example 421, N-{4-[1-(naphthalen-2-ylacetyl)piperidin-4-yl]phenyl}-1-(pyridazin-3-yl)azetidine-3-carboxamide] | 8.43
O=C(Nc1ccc(C2CCN(C(=O)CCc3ccccc3)CC2)cc1)C1CN(c2cccnn2)C1 [Example 422, N-{4-[1-(3-phenylpropanoyl)piperidin-4-yl]phenyl}-1-(pyridazin-3-yl)azetidine-3-carboxamide] | 8.95
O=C(Nc1ccc(C2CCN(C(=O)Cc3c(Cl)cccc3Cl)CC2)cc1)C1CN(c2cccnn2)C1 [Example 423, N-(4-{1-[(2,6-dichlorophenyl)acetyl]piperidin-4-yl}phenyl)-1-(pyridazin-3-yl)azetidine-3-carboxamide] | 9.42
O=C(Nc1ccc(C2CCN(C(=O)CCS(=O)(=O)c3ccccc3)CC2)cc1)C1CN(c2cccnn2)C1 [Example 424, N-(4-{1-[3-(phenylsulfonyl)propanoyl]piperidin-4-yl}phenyl)-1-(pyridazin-3-yl)azetidine-3-carboxamide] | 8.82
O=C(Nc1ccc(C2CCN(C(=O)c3ccsc3)CC2)cc1)C1CN(c2cccnn2)C1 [Example 425, 1-(pyridazin-3-yl)-N-{4-[1-(thiophen-3-ylcarbonyl)piperidin-4-yl]phenyl}azetidine-3-carboxamide] | 9.04
Cc1cc(C(=O)N2CCC(c3ccc(NC(=O)C4CN(c5cccnn5)C4)cc3)CC2)c(C)o1 [Example 426, N-(4-{1-[(2,5-dimethylfuran-3-yl)carbonyl]piperidin-4-yl}phenyl)-1-(pyridazin-3-yl)azetidine-3-carboxamide] | 8.68
O=C(Nc1ccc(C2CCN(C(=O)CC3CC3)CC2)cc1)C1CN(c2cccnn2)C1 [Example 427, N-{4-[1-(cyclopropylacetyl)piperidin-4-yl]phenyl}-1-(pyridazin-3-yl)azetidine-3-carboxamide] | 8.69
O=C(Nc1ccc(C2CCN(C(=O)c3ccccc3F)CC2)cc1)C1CN(c2cccnn2)C1 [Example 428, N-{4-[1-(2-fluorobenzoyl)piperidin-4-yl]phenyl}-1-(pyridazin-3-yl)azetidine-3-carboxamide] | 9.72
Cc1ccccc1C(=O)N1CCC(c2ccc(NC(=O)C3CN(c4cccnn4)C3)cc2)CC1 [Example 429, N-{4-[1-(2-methylbenzoyl)piperidin-4-yl]phenyl}-1-(pyridazin-3-yl)azetidine-3-carboxamide] | 9.10
O=C(Nc1ccc(C2CCN(C(=O)c3cscn3)CC2)cc1)C1CN(c2cccnn2)C1 [Example 430, 1-(pyridazin-3-yl)-N-{4-[1-(1,3-thiazol-4-ylcarbonyl)piperidin-4-yl]phenyl}azetidine-3-carboxamide] | 8.85
O=C(Nc1ccc(C2CCN(C(=O)c3cncs3)CC2)cc1)C1CN(c2cccnn2)C1 [Example 431, 1-(pyridazin-3-yl)-N-{4-[1-(1,3-thiazol-5-ylcarbonyl)piperidin-4-yl]phenyl}azetidine-3-carboxamide] | 8.78
CCOCC(=O)N1CCC(c2ccc(NC(=O)C3CN(c4cccnn4)C3)cc2)CC1 [Example 432, N-{4-[1-(ethoxyacetyl)piperidin-4-yl]phenyl}-1-(pyridazin-3-yl)azetidine-3-carboxamide] | 8.10
O=C(Nc1ccc(C2CCN(C(=O)CCC(F)(F)F)CC2)cc1)C1CN(c2cccnn2)C1 [Example 433, 1-(pyridazin-3-yl)-N-{4-[1-(4,4,4-trifluorobutanoyl)piperidin-4-yl]phenyl}azetidine-3-carboxamide] | 8.24
Cc1ccc(C(=O)N2CCC(c3ccc(NC(=O)C4CN(c5cccnn5)C4)cc3)CC2)cn1 [Example 434, N-(4-{1-[(6-methylpyridin-3-yl)carbonyl]piperidin-4-yl}phenyl)-1-(pyridazin-3-yl)azetidine-3-carboxamide] | 8.20
O=C(Nc1ccc(C2CCN(C(=O)c3ccccc3)CC2)cc1)C1CN(c2cccnn2)C1 [Example 435, N-[4-(1-benzoylpiperidin-4-yl)phenyl]-1-(pyridazin-3-yl)azetidine-3-carboxamide] | 9.52
